According to US20180118588A1, “CONTROL OF BACTERIAL ACTIVITY, SUCH AS IN SEWERS AND WASTEWATER TREATMENT SYSTEMS” (THE UNIVERSITY OF QUEENSLAND, priority 2010, published 2018):
Where two headings read alike, the source gives them in different places.

What was measured:
[1] = system: methanogenic archaea (MA) in sewer biofilm; details: Exp. II
[2] = system: sulfate reducing bacteria (SRB) in sewer biofilm; details: Exp. IV
[3] = system: methanogenic archaea (MA) in sewer biofilm; details: Exp. III
Source text: (§1) Experiment III aimed to achieve complete inhibition on both sulfide and methane production.

[4] = system: sewer biofilm cells; details: Exp. III; FNA dosed in the reactors
Source text: as §1

[5] = system: sulfate reducing bacteria (SRB) in sewer biofilm; details: Exp. III
Source text: as §1

[6] = system: sulfate reducing bacteria (SRB) in sewer biofilm; details: Exp. II
[7] = system: methanogenic archaea (MA) in sewer biofilm; details: Exp. IV
[8] = system: anaerobic sewer biofilms; test: Viability tests with biofilms on carriers from rising main sewer reactors (cell killing capacity, Table 2, FIG. 7-9); type: cell-based; details: for Inactivation of biofilm cells: agent by itself
Description: In these experiments, viability tests were carried out with biofilms on carriers from rising main sewer reactors. […]

[9] = system: sulfate reducing bacteria (SRB) in sewer biofilm; details: Exp. I
[10] = system: methanogenic archaea (MA) in sewer biofilm; details: Exp. I
[11] = FNA 0.05, 0.08, 0.17 mg-N/L, single dose, 6 hour, pH 6.2
[12] = FNA 0.18 and 0.36 mg-N/L, 24 hours, 4 dosages
[13] = one month after stopping FNA dosage
[14] = in the presence of nitrite, continuous dosing 24 days
[15] = nitrite 20 mg-N/L every 30 minutes for 24 days, pH 8.6~9.2 after dosing

O=NO [FNA, free nitrous acid]
Inhibition: methane production [1, 11]: Negligible sulfide | Recovery MA ([1]; after 1 month): MA: 30~50%. | Methane after the FNA dosing ([1]; all FNA concentrations, 6 hour contact): below 20% | Sulfide production ([2]; Day 14): zero production | Sulfide production, of the initial level ([2]; after 7 days): 50% | Recovery SRB ([2]; in three weeks): SRB: 100% in | Inhibition: methane production [3, 12]: Negligible sulfide | Recovery MA ([3]; in two months): MA: 40~60% | Methanogens activity recovery [3, 13]: 20% | Cells in the biofilm killed (FIG. 4B) [4]: over 90% | Inhibition: sulfide production [5, 12]: Negligible sulfide | Recovery SRB ([5]; in two months): SRB: 70-80% in | SRB recovery [5, 13]: about 70% | Inhibition: sulfide production [6, 11]: Negligible sulfide | Time to recover to 50% (SRB) ([6]; R4, highest FNA (0.17 mg-N/L), 6 hour contact): 16 days | Recovery SRB ([6]; after 1 month): SRB: 90%; | Methane production by sewer biofilm ([7]; one month after terminating dosage, 828 m downstream vs wet well): ceased to produce methane | Inhibition: methane production ([7]; real sewer, nitrite 100 mgN/L, pH 6.0, FNA 0.24 mgN/L, 33 hours over three days): Negligible sulfide | Inactivation of biofilm cells [8]: significantly inactivating biofilm cells | Microbial killing, ranking (FIG. 7) ([8]; nitrite 100 mgN/L, pH 6, FNA 0.26 mgN/L, 6 hr, H2O2 30 mg/L, O2 6 mg/L, caustic pH 10.5 for 2 hr after FNA): followed by FNA→Caustic, FNA+O2, and FNA

OO [H2O2, hydrogen peroxide, reference compound]
Effect on biocidal effect of acidified nitrite ([8]; H2O2 30 mg/L with nitrite 100 mgN/L at pH 6, 6 hr): enhanced the biocidal effect of acidified nitrite

[Na+].[OH-] [caustic shock, caustic soda, reference compound]
Inactivation of biofilm cells [8]: significantly inactivating biofilm cells

O=NO [nitrite]
Sulfide accumulation in the reactor [9, 14]: No sulfide and methane accumulation | Residual activity after treatment: SRB [9, 15]: SRB: 1 mg-S/L- mg-S/L-hr | Methane accumulation in the reactor [10, 14]: No sulfide and methane accumulation | Residual activity after treatment: MA [10, 15]: MA: 0.1 mg- mg-COD/L-hr
